Reference: ChEMBL document CHEMBL1140090, “Discovery of orally bioavailable 1,3,4-trisubstituted 2-oxopiperazine-based melanocortin-4 receptor agonists as potential antiobesity agents” (J Med Chem, 2008)

Tests used:
in vitro [1] = settings: human, Caco-2
in vitro [2] = settings: human, Caco-2; remark: listed apart in the source

Row | Papp A→B (in vitro [1]) [nm/s] | Papp (in vitro [2]) [nm/s] | Structure (SMILES)
1 | 3.33 | 3.33 | CNC(=O)[C@H](Cc1ccc2ccccc2c1)N1CCN(C(=O)[C@H](N)Cc2ccc(F)cc2)[C@@H](CCNC(=N)N)C1=O
2 | 65 | 152 | C=CC[C@H]1C(=O)N([C@@H](Cc2ccc3ccccc3c2)C(=O)NC)CCN1C(=O)[C@H](N)Cc1ccc(F)cc1
